Data as given in patent publication US20150353495A1 (PORTOLA PHARMACEUTICALS, INC., priority 2010, published 2015).

Tests used:
Assay type in all cases: biochemical
[1] = molecular target: T1, JAK2 (Homo sapiens, UniProt O60674); assay: Z'-LYTE kinase assay JAK2
T1 construct: 5 μl of catalytic domain recombinant Kinase enzyme+Tyr peptide substrate (Invitrogen, CA); purchased Invitrogen
Summary of the method: (§1)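 In duplicate wells, each test molecule (1% final DMSO) is incubated with recombinant kinase catalytic domain, Tyr6 peptide substrate and ATP for one hour at room temperature; a site-specific protease is then added for another hour before fluorescence reading.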

[2] = molecular target: T2, JAK1 (Homo sapiens, UniProt P23458); assay: Z'-LYTE kinase assay JAK1
T2 construct: 5 μl of catalytic domain recombinant Kinase enzyme+Tyr peptide substrate (Invitrogen, CA); purchased Invitrogen
T2 sequence (P23458 875-1153 limits assumed): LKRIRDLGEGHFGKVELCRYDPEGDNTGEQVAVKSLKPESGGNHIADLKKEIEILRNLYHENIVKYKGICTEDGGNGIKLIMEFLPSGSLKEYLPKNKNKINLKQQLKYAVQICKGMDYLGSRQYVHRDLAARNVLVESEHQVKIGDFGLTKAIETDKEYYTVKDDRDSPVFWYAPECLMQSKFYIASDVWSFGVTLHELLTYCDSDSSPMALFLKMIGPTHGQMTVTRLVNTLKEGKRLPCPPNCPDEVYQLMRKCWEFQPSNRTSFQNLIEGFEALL
Summary of the method: as §1

[3] = molecular target: T3, JAK3 (Homo sapiens, UniProt P52333); assay: Z'-LYTE kinase assay JAK3
T3 construct: 5 μl of catalytic domain recombinant Kinase enzyme+Tyr peptide substrate (Invitrogen, CA); purchased Invitrogen
T3 sequence (P52333 822-1111 limits assumed): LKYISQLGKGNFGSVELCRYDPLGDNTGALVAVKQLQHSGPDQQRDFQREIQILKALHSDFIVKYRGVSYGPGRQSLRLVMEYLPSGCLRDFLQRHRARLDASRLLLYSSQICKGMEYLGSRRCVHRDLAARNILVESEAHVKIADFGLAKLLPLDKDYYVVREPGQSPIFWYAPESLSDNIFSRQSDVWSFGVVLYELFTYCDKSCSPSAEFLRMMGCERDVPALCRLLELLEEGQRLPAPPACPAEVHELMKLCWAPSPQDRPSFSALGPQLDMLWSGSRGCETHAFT
Summary of the method: as §1

T1 sequence (O60674 849-1124 limits assumed): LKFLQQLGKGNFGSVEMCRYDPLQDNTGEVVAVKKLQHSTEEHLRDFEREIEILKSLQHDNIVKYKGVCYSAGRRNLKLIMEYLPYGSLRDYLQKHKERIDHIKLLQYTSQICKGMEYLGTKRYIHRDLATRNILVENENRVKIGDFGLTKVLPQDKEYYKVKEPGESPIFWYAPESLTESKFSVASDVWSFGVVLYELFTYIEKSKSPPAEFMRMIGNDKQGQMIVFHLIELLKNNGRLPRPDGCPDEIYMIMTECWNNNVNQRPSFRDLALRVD

Compound	IC50 [1]	IC50 [2]	IC50 [3]
COC[C@@H](Nc1cc(Nc2ccc(OC)cc2)ncc1C(N)=O)c1ccccc1 [Example 260, (S)-4-(2-methoxy-1-phenylethylamino)-6-(4-methoxyphenylamino)nicotinamide]	> 1 µM	> 1 µM	0.01 to 0.1 µM
COC[C@@H](Nc1cc(Nc2cccc(N3CCOCC3)c2)ncc1C(N)=O)c1ccccc1 [Example 261, (S)-4-(2-methoxy-1-phenylethylamino)-6-(3-morpholinophenylamino)nicotinamide]	0.1 to 1 µM	> 1 µM	0.01 to 0.1 µM
COC[C@@H](Nc1cc(Nc2ccc(N3CCOCC3)cc2)ncc1C(N)=O)c1ccccc1 [Example 262, (S)-4-(2-methoxy-1-phenylethylamino)-6-(4-morpholinophenylamino)nicotinamide]	0.1 to 1 µM	> 1 µM	0.01 to 0.1 µM
COC[C@@H](Nc1cc(Nc2ccc(C(=O)N(C)C)cc2)ncc1C(N)=O)c1ccccc1 [Example 263, (S)-6-(4-(dimethylcarbamoyl)phenylamino)-4-(2-methoxy-1-phenylethylamino)nicotinamide]	0.1 to 1 µM	> 1 µM	0.01 to 0.1 µM
COC[C@@H](Nc1cc(Nc2ccc(C(=O)N3CCC3)cc2)ncc1C(N)=O)c1ccccc1 [Example 264, (S)-6-(4-(azetidine-1-carbonyl)phenylamino)-4-(2-methoxy-1-phenylethylamino)nicotinamide]	0.1 to 1 µM	0.1 to 1 µM	0.01 to 0.1 µM
COCC(=O)N1CCC[C@H](CNc2cc(Nc3ccc(C(=O)N(C)C)cc3)ncc2C(N)=O)C1 [Example 266, (R)-6-(4-(dimethylcarbamoyl)phenylamino)-4-((1-(2-methoxyacetyl)piperidin-3-yl)methylamino)nicotinamide]	> 1 µM	> 1 µM	0.01 to 0.1 µM
COCC(=O)N1CCC[C@H](CNc2cc(Nc3ccc(C(=O)N4CCCC4)cc3)ncc2C(N)=O)C1 [Example 267, (R)-4-((1-(2-methoxyacetyl)piperidin-3-yl)methylamino)-6-(4-(pyrrolidine-1-carbonyl)phenylamino)nicotinamide]	0.1 to 1 µM	> 1 µM	0.01 to 0.1 µM
CN(C)S(=O)(=O)N(C)c1ccc(Nc2cc(NCc3ccccc3)c(C(N)=O)cn2)cc1 [Example 268, 4-(benzylamino)-6-(4-((N,N-dimethylsulfamoyl)(methyl)amino)phenylamino)nicotinamide]	0.1 to 1 µM	0.1 to 1 µM	0.01 to 0.1 µM
CC(=O)N1CCC[C@H](CNc2cc(Nc3ccc(NS(=O)(=O)N(C)C)cc3)ncc2C(N)=O)C1 [Example 269, (R)-4-((1-acetylpiperidin-3-yl)methylamino)-6-(4-(N,N-dimethylsulfamoylamino)phenylamino)nicotinamide]	0.1 to 1 µM	0.1 to 1 µM	0.01 to 0.1 µM
COc1ccc(Nc2cc(NC[C@H]3CCCNC3)c(C(N)=O)cn2)cc1 [Example 270, (S)-6-(4-methoxyphenylamino)-4-(piperidin-3-ylmethylamino)nicotinamide]	> 1 µM	0.1 to 1 µM	0.1 to 1 µM
CCC(=O)N1CCC[C@H](CNc2cc(Nc3ccc(OC)cc3)ncc2C(N)=O)C1 [Example 271, (R)-6-(4-methoxyphenylamino)-4-((1-propionylpiperidin-3-yl)methylamino)nicotinamide]	> 1 µM	> 1 µM	0.01 to 0.1 µM
CN(C)C(=O)c1ccc(Nc2cc(NCc3ccccc3)c(C(N)=O)cn2)cc1C(F)(F)F [Example 272, 4-(benzylamino)-6-(4-(dimethylcarbamoyl)-3-(trifluoromethyl)phenylamino)nicotinamide]	> 1 µM	> 1 µM	0.01 to 0.1 µM
CN(C)C(=O)c1ccc(Nc2cc(NCc3ccccc3)c(C(N)=O)cn2)cc1F [Example 273, 4-(benzylamino)-6-(4-(dimethylcarbamoyl)-3-fluorophenylamino)nicotinamide]	0.1 to 1 µM	> 1 µM	0.01 to 0.1 µM
CC(=O)N1CCC[C@H](CNc2cc(Nc3ccc(C(=O)N(C)C)c(C(F)(F)F)c3)ncc2C(N)=O)C1 [Example 274, (R)-4-((1-acetylpiperidin-3-yl)methylamino)-6-(4-(dimethylcarbamoyl)-3-(trifluoromethyl)phenylamino)nicotinamide]	> 1 µM	> 1 µM	0.1 to 1 µM
CC(=O)N1CCC[C@H](CNc2cc(Nc3ccc(C(=O)N(C)C)c(F)c3)ncc2C(N)=O)C1 [Example 275, (R)-4-((1-acetylpiperidin-3-yl)methylamino)-6-(4-(dimethylcarbamoyl)-3-fluorophenylamino)nicotinamide]	> 1 µM	> 1 µM	0.1 to 1 µM
NC(=O)c1cnc(Nc2ccc(-c3c[nH]cn3)cc2)cc1NCc1ccccc1 [Example 276, 6-(4-(1H-imidazol-4-yl)phenylamino)-4-(benzylamino)nicotinamide]	0.1 to 1 µM	0.1 to 1 µM	0.01 to 0.1 µM
NC(=O)c1cnc(Nc2ccc(-n3cccn3)cc2)cc1NCc1ccccc1 [Example 277, 6-(4-(1H-pyrazol-1-yl)phenylamino)-4-(benzylamino)nicotinamide]	> 1 µM	> 1 µM	0.01 to 0.1 µM
NC(=O)c1cnc(Nc2ccc(-n3cccn3)nc2)cc1NCc1ccccc1 [Example 278, 6-(6-(1H-pyrazol-1-yl)pyridin-3-ylamino)-4-(benzylamino)nicotinamide]	> 1 µM	> 1 µM	0.1 to 1 µM
COc1ccc(Nc2cc(NCc3ccccc3)c(C(N)=O)cn2)cc1C [Example 279, 4-(benzylamino)-6-(4-methoxy-3-methylphenylamino)nicotinamide]	> 1 µM	> 1 µM	0.01 to 0.1 µM
COc1cc(Nc2cc(NCc3ccccc3)c(C(N)=O)cn2)cc(OC)c1OC [Example 280, 4-(benzylamino)-6-(3,4,5-trimethoxyphenylamino)nicotinamide]	0.1 to 1 µM	> 1 µM	0.01 to 0.1 µM

Continued, values first:

IC50 [1]	IC50 [2]	IC50 [3]	Compound
0.1 to 1 µM	0.1 to 1 µM	0.01 to 0.1 µM	NC(=O)c1cnc(Nc2ccc(-c3nc[nH]n3)cc2)cc1NCc1ccccc1 [Example 281, 6-(4-(1H-1,2,4-triazol-3-yl)phenylamino)-4-(benzylamino)nicotinamide]
> 1 µM	> 1 µM	0.01 to 0.1 µM	COc1ccc(Nc2cc(NCc3cccc4cc[nH]c34)c(C(N)=O)cn2)cc1 [Example 282, 4-((1H-indol-7-yl)methylamino)-6-(4-methoxyphenylamino)nicotinamide]
> 1 µM	> 1 µM	0.1 to 1 µM	COc1ccc(Nc2cc(NCc3cncnc3)c(C(N)=O)cn2)cc1 [Example 286, 6-(4-methoxyphenylamino)-4-(pyrimidin-5-ylmethylamino)nicotinamide]
> 1 µM	> 1 µM	0.1 to 1 µM	Cc1cc(Nc2cc(NCc3cncnc3)c(C(N)=O)cn2)ccc1C(=O)N(C)C [Example 287, 6-(4-(dimethylcarbamoyl)-3-methylphenylamino)-4-(pyrimidin-5-ylmethylamino)nicotinamide]
0.01 to 0.1 µM	> 1 µM	0.001 to 0.01 µM	CN(C)C(=O)c1ccc(Nc2cc(NCc3cccc4cc[nH]c34)c(C(N)=O)cn2)cc1 [Example 288, 4-((1H-indol-7-yl)methylamino)-6-(4-(dimethylcarbamoyl)phenylamino)nicotinamide]
0.1 to 1 µM	> 1 µM	0.01 to 0.1 µM	CCS(=O)(=O)N1CCC[C@H](CNc2cc(Nc3ccc(OC)cc3)ncc2C(N)=O)C1 [Example 289, (R)-4-((1-(ethylsulfonyl)piperidin-3-yl)methylamino)-6-(4-methoxyphenylamino)nicotinamide]
> 1 µM	> 1 µM	0.1 to 1 µM	COc1ccc(Nc2cc(NC[C@H]3CCCN(C(=O)N4CCCC4)C3)c(C(N)=O)cn2)cc1 [Example 290, (R)-6-(4-methoxyphenylamino)-4-((1-(pyrrolidine-1-carbonyl)piperidin-3-yl)methylamino)nicotinamide]
> 1 µM	> 1 µM	0.1 to 1 µM	COc1ccc(Nc2cc(NC[C@H]3CCCN(C(=O)N(C)C)C3)c(C(N)=O)cn2)cc1 [Example 291, (R)-4-((1-(dimethylcarbamoyl)piperidin-3-yl)methylamino)-6-(4-methoxyphenylamino)nicotinamide]
> 1 µM	> 1 µM	0.1 to 1 µM	COc1ccc(Nc2cc(NC[C@H]3CCCN(S(=O)(=O)C4CC4)C3)c(C(N)=O)cn2)cc1 [Example 292, (R)-4-((1-(cyclopropylsulfonyl)piperidin-3-yl)methylamino)-6-(4-methoxyphenylamino)nicotinamide]
0.1 to 1 µM	0.1 to 1 µM	0.01 to 0.1 µM	COc1ccc(Nc2cc(NCc3ccccc3)c(C(N)=O)cn2)cc1OC [Example 293, 4-(benzylamino)-6-(3,4-dimethoxyphenylamino)nicotinamide]
0.001 to 0.01 µM	0.001 to 0.01 µM	< 0.001 µM	Cc1cc(Nc2cc(NCc3cccc4[nH]ccc34)c(C(N)=O)cn2)ccc1C(=O)N(C)C [Example 295, 4-((1H-indol-4-yl)methylamino)-6-(4-(dimethylcarbamoyl)-3-methylphenylamino)nicotinamide]
0.1 to 1 µM	0.1 to 1 µM	0.01 to 0.1 µM	COc1ccc(Nc2cc(NCc3cncc(F)c3)c(C(N)=O)cn2)cc1 [Example 296, 4-((5-fluoropyridin-3-yl)methylamino)-6-(4-methoxyphenylamino)nicotinamide]
> 1 µM	> 1 µM	0.1 to 1 µM	COc1ccc(Nc2cc(NCc3ccncn3)c(C(N)=O)cn2)cc1 [Example 298, 6-(4-methoxyphenylamino)-4-(pyrimidin-4-ylmethylamino)nicotinamide]
